6 substances from patent publication US7033829B2, “Method to inhibit cell growth using oligonucleotides” (Trustees of Boston University, priority 2000, dated 2006) can be followed below.

Oligonucleotides are written 5' to 3', each unit as a sugar letter and its base; * is a phosphorothioate linkage, no mark a phosphodiester; rarer units and linkages stand in square brackets, end groups in braces. Plain capitals give the bases only. d = 2'-deoxy (DNA); {P} = phosphate

Data set [1] relates to p21/Waf 1/Cip 1 gene. Briefly: p21 mRNA Northern blot in SCC12F cells. Format: cell-based, human. Conditions: for p21 mRNA level relative to diluent control: 48 hours, FIG. 13; for increase of p21/Waf 1/Cip 1 mRNA level: within 48 hours. The procedure: The induction of melanogenesis in Cloudman S91 mouse melanoma cells by a five-nucleotide oligomer CATAC (SEQ ID NO: 6) and a nine-nucleotide oligomer, GAGTATGAG (SEQ ID NO: 1) was examined. Duplicates of Cloudman S91 murine melanoma cells were incubated with either 100 μM oligo or an equal volume of diluent (H2O) for 5 days. The cells were then collected, counted, and an equal number of cells were pelleted for melanin analysis. […] Variations of this oligonucleotide were evaluated: a scrambled 9-mer (TAGGAGGAT; SEQ ID NO: 2) and two truncated versions, a 7-mer (AGTATGA; SEQ ID NO: 3) and second 5-mer (GTATG; SEQ ID NO: 4). […] The truncated versions (SEQ ID NOs: 3 and 4) were also active, inducing 640% and 670% increases, respectively.
pTpT was previously found to inhibit cell cycle progression, at least in part through activation of p53 and subsequent upregulation of the cyclin dependent kinase inhibitor p21. Cultures of the human keratinocyte line SCC12F were treated with pTpT, SEQ ID NO: 1, SEQ ID NO: 6 or diluent alone as a negative control, collected and counted 48 hours later and processed for northern blot analysis of p21 mRNA expression. […] Thus, the sequences of the present invention activate p53 and inhibit cell proliferation similar to the effect of pTpT.

Data set [2] has as its system Jurkat cells. Put plainly: FACS cell cycle / apoptosis analysis of Jurkat cells. To be noted: for cells accumulated in the S-phase: 5 μM, within 72 hours (diluent 36%); for cell cycle profile: 0.4 μM; for apoptosis in human T cells: summary of Example 13. Format: cell-based, human. The procedure:
Oligonucleotides homologous to the telomere overhang repeat sequence (TTAGGG; SEQ ID NO:11), sequence (11mer-1: pGTTAGGGTTAG; SEQ ID NO: 5), complementary to this sequence (11mer-2: pCTAACCCTAAC; SEQ ID NO: 9) and unrelated to the telomere sequence (11mer-3: pGATCGATCGAT; SEQ ID NO: 10) were added to cultures of Jurkat cells, a line of human T cells, one of the cell types reported to undergo apoptosis in response to telomere disruption. Within 48 hours, 50% of the cells treated with 40 μM of SEQ ID NO: 5 had accumulated in the S phase, compared to 25–30% for control cells (p<0.0003, non-paired t-test; see FIGS. 19A–19D), and by 72 hours, 13% of these cells were apoptotic as determined by a sub-G0/G1 DNA content, compared to 2–3% of controls (p<0.007, non-paired t-test; see FIGS. 19E–19H). At 96 hours, 20±3% of the 11mer-1 treated cells were apoptotic compared with 3–5% of controls (p<0.0001, non-paired t-test). To exclude preferential uptake of the 11mer-1 as an explanation of its singular effects, Jurkat cells were treated with oligonucleotides labeled on the 3′ end with fluorescein phosphoramidite, then subjected to confocal microscopy and FACS analysis. The fluorescence intensity of the cells was the same after all treatments at 4 hours and 24 hours.
Three DNA oligonucleotides were designed initially: one homologous to the telomere overhang (11mer-1: pGTTAGGGTTAG; SEQ ID NO:5), one complementary to this sequence (11mer-2: pCTAACCCTAAC; SEQ ID NO:9) and one unrelated (11mer-3: pGATCGATCGAT; SEQ ID NO:10). For later experiments, additional 11 base oligonucleotides were designed: one a simple permutation of 11mer-1 (pGGGTTAGGGTT; SEQ ID NO:13), one with the same number of G residues but roughly 50% rather than 100% homology to the overhang (pTAGATGTGGTG; SEQ ID NO:14), and one with roughly 50% overhang homology but also containing cytosine bases (pCGGGCTTATTG; SEQ ID NO:15) (Midland Certified Reagent Company, Midland, Tex.). Cell Sources and Culture Human neonatal fibroblasts were established and cultured as previously described (Eller, M. S., et al., 1997, Proc Natl Acad Sci USA 94: 12627–12632). Fibroblasts from a Nijmegen breakage syndrome (NBS) patient (#GM07166) and an age-matched control (GM03399) were purchased from the NIGMS Human Cell Repository, Coriell Institute for Medical Research, Camden, N.J.) and cultured in DMEM/15% FBS. Saos-2 cells were purchased from the American Type Culture Collection (ATCC; Manassas, Va.). SCC12F cells were the kind gift of Dr. James Rheinwald, Harvard University. Cell Cycle Analysis The established line of human T lymphocytes, termed Jurkat cells (180,000 cells/ml) were plated in RPMI medium 1640 supplemented with 3% FBS (both from GIBCO/BRL, Gaithersburg, Md.). […] Cells were collected up to 96 hours after treatment, stained with propidium iodide and analyzed by FACS using a Becton-Dickinson FacsScan and CellQuest software. Caspase Activity
Oligonucleotides homologous to the 3′ overhang sequence (11mer-1: pGTTAGGGTTAG; SEQ ID NO:5), complementary to this sequence (11mer-2: pCTAACCCTAAC; SEQ ID NO:9) and unrelated to the telomere sequence (11mer-3: pGATCGATCGAT; SEQ ID NO:10) were synthesized. The three 11mer oligonucleotides were added to cultures of Jurkat cells, an established line of human T lymphocytes, a cell type reported to undergo apoptosis in response to telomere disruption [Karlseder, J., et al, (1999) Science 283, 1321–1325] and DNA damaging ionizing radiation (IR) [Vigorito, E., et al, (1999), Hematol Cell Ther 41, 153–161]. Duplicate cultures of Jurkat cells were treated with a final concentration of 40 μM 11mer-1, -2 or -3, oligonucleotides, or an equal volume of diluent (water) as a control. Cells were collected up to 96 hours after treatment, stained with propidium iodideandanalyzed by FACS. See also Example 13 and FIGS. 19A–19H.
To further confirm the specificity of these responses to the telomere overhang sequence, three variations were tested. […]

Data set [3] relates to normal neonatal human fibroblasts. Briefly: FACS analysis of normal neonatal fibroblasts. Format: cell-based. Conditions: 40 μM; for S-phase checkpoint: within 24 hours. The procedure:
The averages and standard deviations presented in FIGS. 32A–32D were determined from triplicate samples. One representative experiment of three is presented. […] Control 11-base oligonucleotides complementary (11mer-2) or unrelated (11mer-3) to the telomere overhang had no effect on the cells.
(A flow cytometer gives signals particle by particle.)

For the substance thymidine dinucleotide [pTpT], in data set [1], the “p21 mRNA level relative to diluent control” value was “twice that of control cells” and the “increase of p21/Waf 1/Cip 1 mRNA level” value is given as 100–150%. Also, in data set [2], the “higher concentration needed to duplicate the 11mer-1 effect on cell cycle arrest” value was found to be 4 fold and the “cells accumulated in the S-phase” value was 45%. The “treated cells in the S-phase” value in data set [2] (20 μM, 72 hours) was 53±1%. Further, the apoptosis entry in data set [2] (20 μM, even at 96 hours) was “No apoptosis was detected”.

Regarding “pGAGTATGAG (DNA, 5' {P}, backbone not given here) [SEQ ID NO: 1]”, in data set [1], the “p21 mRNA level relative to diluent control” value was around 3 fold and the “increase of p21/Waf 1/Cip 1 mRNA level” value is recorded as 200–300%.

As for “pGTTAGGGTTAG (DNA {P}-dGdTdTdAdGdGdGdTdTdAdG) [SEQ ID NO: 5]”, in data set [2] (96 hours), the cell cycle profile result was “neither of the oligonucleotides affected”. Further, in data set [2], the “cells accumulated in the S-phase” value turned out to be 61% and the “apoptosis in human T cells” value was “induced human T cells to undergo apoptosis”. For the same substance, in data set [2] (20 μM, 72 hours), the “treated cells in the S-phase” value came to 58±1%. In addition, in data set [2] (40 μM, 72 hours), the “apoptotic cells (sub-G0/G1 DNA content)” value stood at 13% and the “cells in S phase” value is listed as 38%. In addition, in data set [2] (40 μM, 96 hours), the “apoptosis (sub-G0/G1 peak)” value is on record as “induced extensive apoptosis” and the apoptotic cells turned out to be 20±3%. Further, the “cells accumulated in the S phase” value in data set [2] (40 μM, within 48 hours) was found to be 50%. The “activity of the two complete telomere overhang homologs” value in data set [2] (separate paired cultures) is “equal in activity”. For the same substance, the apoptotic cells result in data set [3] (up to 72 hours) is listed as “no apoptotic cells were detected”. For the same substance, the S-phase checkpoint result in data set [3] is listed as “activation of an S-phase checkpoint”.

For “pCTAACCCTAAC (DNA, 5' {P}, backbone not given here) [SEQ ID NO: 9, reference compound]”, the “apoptosis in human T cells” value in data set [2] is “did not significantly increase apoptosis”. Besides, the S-phase checkpoint result in data set [3] is reported as “had no effect”.

Regarding “11mer-1-S: phosphorothioate 11mer-1 (dG*dT*dT*dA*dG*dG*dG*dT*dT*dA*dG; further chemistry not fully specified)”, the cell cycle profile result in data set [2] (96 hours) is “neither of the oligonucleotides affected”. The “apoptosis (sub-G0/G1 peak)” value in data set [2] (40 μM, 96 hours) is reported as “had no effect”.

For the substance “pGATCGATCGAT (DNA {P}-dGdAdTdCdGdAdTdCdGdAdT) [SEQ ID NO: 10, reference compound]”, the “apoptosis in human T cells” value in data set [2] is recorded as “did not significantly increase apoptosis”. Further, the S-phase checkpoint result in data set [3] is reported as “had no effect”.
